The assay can be described thus: U-tube lucigenin (chloride) transport experiment. Conditions: 1 mM in chloroform, 20 mM MOPS, 100 mM NaCl, pH 7.4, 25 °C, up to 24 h, UV at 455 nm. On the procedure: To assess if these compounds can act as cation carriers, U-tube experiments for sodium picrate transport were performed on 1, Cu(II)[1]Cl2 and Cu(II)[2]Cl2. […] Similarly, a U-tube experiment for chloride transport was performed using lucigenin.[4],[40]
5.7 Preparation of large unilamellar vesicles for CF release assays
A 50 mM 5(6)-carboxyfluorescein (CF) solution in MOPS buffer (20 mM MOPS, 100 mM NaCl, pH 7.4) was prepared by dissolving 5/6-CF in MOPS buffer, adding a sodium hydroxide (1M) solution dropwise until pH 11 was reached. The resulting solution was the slowly acidified to pH 7.4.
EYPC-cholesterol (4:1) 800 nm vesicles were prepared as described above, using the above mentioned 5(6)-carboxyfluorescein (CF) (50 mM) solution. […]
The U-tube was incubated in a water bath at 25 °C and the chloroform phase was stirred at 300 rpm during the entire experiment, ensuring efficient diffusion of any potential carrier-ion complex to the receiving phase. Aliquots (1 mL) were taken from the receiving phase and analysed for the presence of picrate by UV spectroscopy (at 356 nm). […]
Figure S11: U-tube metal picrate transport data for foldamer 1 (brown), Cu[2]Cl2 (black), Cu[1]Cl2 (green), and the control transporter, dibenzo-18-crown-6 (red). Absorbance at 356 nm. […]
Aliquots (1 mL) were taken from the receiving phase and analysed for the presence of lucigenin by UV spectroscopy (at 455 nm). […]

Where a SMILES comes first, the peptide text is derived from it.

For `CC(C)(NC(=O)C(C)(C)NC(=O)C(C)(C)NC(=O)C(C)(C)NC(=O)C(C)(C)n1cc(CN(Cc2ccccn2)Cc2ccccn2)nn1)C(=O)NC(C)(C)C(=O)NC(C)(C)C(=O)NC(C)(C)C(=O)OCC[Si](C)(C)C` [foldamer 2] (HELM PEPTIDE1{[CC(C)(C(=O)[*:2])n1cc(CN(Cc2ccccn2)Cc2ccccn2)nn1].[Aib].[Aib].[Aib].[Aib].[Aib].[Aib].[Aib].[C[Si](C)(C)CCO[*:1]]}$$$$V2.0), the “chloride (lucigenin) transport through the organic phase” value was “no chloride was carried through the organic phase”.

The values are drawn from PMC7481839, “Switchable foldamer ion channels with antibacterial activity” (Chemical Science, 2020).
